{"source": "patent US11434205B2", "about": "“Substituted imidazole carboxylate derivatives and the use thereof” (priority 2018, dated 2022)", "key": {"[1]": {"tested_on": "secretion of cortisol, H295R cell line", "assay": "cells", "format": "cell-based", "settings": "for EC50: read-out: EC50 (Cortisol)", "method": "(§1) The Effects of the Compounds on Adrenocortical Function In Vitro Test\n(§2) Then secretion of the cortisol and corticosterone in the supernatant, was measured using HPLC-MS/MS method to determine whether the compounds of the present invention had adrenotoxic potential."}, "[2]": {"tested_on": "secretion of corticosterone, H295R cell line", "assay": "cells", "format": "cell-based", "settings": "for EC50: read-out: EC50 (Corticosterone)", "method": "as §1, §2"}, "rats [3]": {"tested_on": "rats", "format": "in vivo, rat", "settings": "rats of the MAP/HR figures, 2×ED50, tail vein; same value in min", "method_in_brief": "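Rats implanted with telemetry (left ventricular and abdominal aortic catheters, ECG leads) at least one week before recording; compounds given via lateral tail-vein catheter. MAP and HR sampled every 15 s for 30 min before and after dosing to judge hemodynamic stability.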"}, "rats [4]": {"tested_on": "rats", "assay": "Pharmacological characteristics at equivalent doses (2×ED50) in rats", "settings": "2×ED50, tail vein", "method_in_brief": "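Adult male Sprague-Dawley rats (250-300 g, n=8) received each drug at twice its ED50 via tail vein (0.6 mL at 0.1 mL/s). Onset of anesthesia taken as time to LORR.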"}, "rats [5]": {"tested_on": "rats", "settings": "continuous tail vein infusion at 2×MIR, LORR maintained 1 hour, Table E4", "method": "Pharmacological Effects of the Compounds on Continuous Infusion in Rats\nAdult male Sprague-Dawley rats with body weight ranging from 250 to 300 gm were selected for continuous infusion test. […] Time to recovery of righting reflex from stopping infusion, and time to fully awake from stopping infusion were recorded."}, "rats [6]": {"tested_on": "rats", "assay": "Loss of righting reflexes (LORR) assay in rats, ED50 by up and down method", "format": "in vivo, rat", "settings": "tail vein, class symbols", "method_in_brief": "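Adult male Sprague-Dawley rats (250-300 g) dosed i.v. via tail vein at 0.1 mL/s. Anesthesia scored as loss of righting reflex lasting >30 s; ED50 derived by up-and-down method.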"}, "rats [7]": {"tested_on": "rats", "format": "in vivo, rat", "settings": "rats of the MAP/HR figures, 2×ED50, tail vein"}, "rats [8]": {"tested_on": "rats", "method": "Adult male Sprague-Dawley rats (250-300 g) were selected for the experiment. […] The anesthesia effects of the compounds were assessed in rats using a LORR assay and a period >30 s was considered as an indicator of general anesthesia. Then the up and down method was used to determine 50% effective dose (ED50). The drugs were administered through the tail vein of rats in a volume of 0.6 mL and at a rate of 0.1 mL/s."}, "11-β-hydroxylase": {"target": "T1, 11-β-hydroxylase (Rattus norvegicus, UniProt P15393)", "T1 sequence (P15393 25-499)": "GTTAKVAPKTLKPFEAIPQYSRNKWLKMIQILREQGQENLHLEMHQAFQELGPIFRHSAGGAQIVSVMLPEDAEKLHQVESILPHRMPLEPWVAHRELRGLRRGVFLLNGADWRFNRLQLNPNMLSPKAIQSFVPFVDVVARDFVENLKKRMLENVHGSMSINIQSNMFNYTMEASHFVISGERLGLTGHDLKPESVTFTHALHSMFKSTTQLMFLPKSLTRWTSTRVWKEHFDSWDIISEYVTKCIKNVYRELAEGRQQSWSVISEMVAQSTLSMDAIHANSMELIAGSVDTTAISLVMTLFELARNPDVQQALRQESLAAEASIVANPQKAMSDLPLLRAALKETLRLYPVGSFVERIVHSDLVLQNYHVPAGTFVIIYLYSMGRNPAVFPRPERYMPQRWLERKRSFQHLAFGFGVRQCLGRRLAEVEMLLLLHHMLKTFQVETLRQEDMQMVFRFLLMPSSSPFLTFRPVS", "settings": "compared with etomidate; cited from earlier work"}, "[9]": {"settings": "H295R cell line, 0.1-10000 nM, HPLC-MS/MS, Table E3"}, "[10]": {"settings": "H295R cell line, 0.1-10000 nM, HPLC-MS/MS, Table D3"}, "[11]": {"settings": "H295R, 0.1-10000 nM, HPLC-MS/MS"}}, "note": "Like-named read-outs stand apart in the source and are kept apart here."}
{"compound": "C[C@H](c1ccccc1)n1cnc(F)c1C(=O)OC1(C)COC1", "note": "[Compound E38]", "values": [{"measurement": "Cortisol as an indicator to determine the presence of inhibition", "setting": "[1]; [9]", "result": 0}, {"measurement": "EC50", "setting": "[1]; [9]", "result": "> 10", "unit": "µM"}, {"measurement": "Corticosterone as an indicator to determine the presence of inhibition", "setting": "[2]; [9]", "result": 0}, {"measurement": "EC50", "setting": "[2]; [9]", "result": "> 10", "unit": "µM"}, {"measurement": "recovery time of the test animals' righting reflex", "setting": "rats [3]", "result": 2.03, "unit": "min"}, {"measurement": "Righting reflex duration", "setting": "rats [4]", "result": "1.96 ± 1.39", "unit": "min"}, {"measurement": "Sedation duration (mg/kg)", "setting": "rats [4]", "result": "4.96 ± 1.66"}, {"measurement": "Adverse reactions: Red urine (incidence)", "setting": "rats [4]; DMSO solution (DMSO alone 10/10)", "result": "(8/8)"}, {"measurement": "Onset time", "setting": "rats [4]; time of LORR", "result": "0.25 ± 0.13", "unit": "min"}, {"measurement": "Onset time", "setting": "rats [5]", "result": "2 to 3", "unit": "min"}, {"measurement": "Recovery time after stopping infusion", "setting": "rats [5]", "result": "8 to 13", "unit": "min"}, {"measurement": "Types and incidence of adverse reactions", "setting": "rats [5]", "result": "Tremor (3/6)"}, {"measurement": "ED50 (mg/kg)", "setting": "rats [6]", "result": "B (B means that the measured ED50 is in the range of 0.10-0.50 mg/kg (excluding 0.10 mg/kg, including 0.50 mg/kg).)"}, {"measurement": "recovery time of the test animals' righting reflex", "setting": "rats [7]", "result": 122, "unit": "s"}, {"measurement": "Approximate therapeutic index", "setting": "rats [8]", "result": ">20"}, {"measurement": "Minimal lethal dose", "setting": "rats [8]", "result": ">7", "unit": "mg/kg"}]}
{"compound": "C[C@H](c1ccccc1)n1cncc1C(=O)O", "note": "[Etomidate acid, etomidate acid, reference compound]", "values": [{"measurement": "Cortisol as an indicator to determine the presence of inhibition", "setting": "[1]; [10]", "result": 0}, {"measurement": "EC50", "setting": "[1]; [10]", "result": "> 10", "unit": "µM"}, {"measurement": "Cortisol as an indicator to determine the presence of inhibition", "setting": "[1]; [9]", "result": 0}, {"measurement": "EC50", "setting": "[1]; [9]", "result": "> 10", "unit": "µM"}, {"measurement": "EC50", "setting": "[1]; [11]", "result": "> 10", "unit": "µM"}, {"measurement": "Cortisol as an indicator to determine the presence of inhibition", "setting": "[1]; H295R, Table A3", "result": 0}, {"measurement": "Cortisol as an indicator to determine the presence of inhibition", "setting": "[1]; H295R, Table B3", "result": 0}, {"measurement": "Cortisol as an indicator to determine the presence of inhibition", "setting": "[1]; H295R, Table C3", "result": 0}, {"measurement": "Corticosterone as an indicator to determine the presence of inhibition", "setting": "[2]; [10]", "result": 0}, {"measurement": "EC50", "setting": "[2]; [10]", "result": "> 10", "unit": "µM"}, {"measurement": "Corticosterone as an indicator to determine the presence of inhibition", "setting": "[2]; [9]", "result": 0}, {"measurement": "EC50", "setting": "[2]; [9]", "result": "> 10", "unit": "µM"}, {"measurement": "EC50", "setting": "[2]; [11]", "result": "> 10", "unit": "µM"}, {"measurement": "Corticosterone as an indicator to determine the presence of inhibition", "setting": "[2]; H295R, Table A3", "result": 0}, {"measurement": "Corticosterone as an indicator to determine the presence of inhibition", "setting": "[2]; H295R, Table B3", "result": 0}, {"measurement": "Corticosterone as an indicator to determine the presence of inhibition", "setting": "[2]; H295R, Table C3", "result": 0}, {"measurement": "inhibitory effect on 11-β-hydroxylase", "setting": "11-β-hydroxylase", "result": "little inhibitory effect"}]}
